Experimental findings from EP4714938A1, “HDAC1/2 SELECTIVE INHIBITOR AND USE THEREOF” (Wigen Biomedicine Technology (Shanghai) Co., Ltd., priority 2023, dated 2024) are described below.

The data set in a line: Pharmacokinetic experiment in mice. In kind it is in vivo, CD-1 female mice. To be noted: mouse, plasma. Here is the method: CD-1 female mice aged 7 to 10 weeks were intravenously administered and orally administered at doses of 1 mg/kg and 10 mg/kg, respectively. The mice were fasted for at least 12 h before the administration and given food 4 h after the administration, and they were given ad libitum access to water during the experiment.
On the day of the experiment, animals in the intravenous group were given the corresponding compound by single injection via the tail vein at an administration volume of 10 mL/kg; and animals in the oral group were given the corresponding compound by single intragastric injection at an administration volume of 10 mL/kg. The animals were weighed before administration, and the administration volume was calculated according to the body weight. The sample collection time points were 0.083 h, 0.167 h, 0.5 h, 1 h, 2 h, 4 h, 8 h, and 24 h.
About 200 µL of whole blood was collected through the orbital venous plexus at each time point and used to prepare plasma for concentration determination by high-performance liquid chromatography-tandem mass spectrometry (LC-MS/MS). The plasma concentrations were processed using a non-compartmental model of Winnolin pharmacokinetic software, and the pharmacokinetic parameters were calculated using a linear-log trapezoidal method. Table 9. Results of in vivo pharmacokinetic evaluation of compounds of the present disclosure

The mark [1] stands for this setting: Injection (1 mg/kg), intravenous.

Under setting [1], `CS(C)(=O)=Nc1ccc(C(=O)Nc2cc(-c3ccc(F)cc3)ccc2N)cc1` [Compound 1, N-(4-Amino-4'-fluoro-[1,1'-biphenyl]-3-yl)-4-((dimethyl(oxo)-1^λ-6-sulfaneylidene)amino)benzamide] showed an AUC(0-t) of 2280 ng·h/mL, a clearance of 7.29 mL/min/kg and a half-life of 3.01 h. Also, the Vd (Injection (1 mg/kg), intravenous, read-out: Vdss) came out at 1.68 L/kg. In addition, under “Oral administration (10 mg/kg)”, the AUC(0-t) amounted to 15400 ng·h/mL, the peak level (Cmax) was 1370 ng/mL, the Tmax worked out at 2 h and the bioavailability came to 67.4%. Moreover, the half-life (Oral administration (10 mg/kg)) was 2.73 h.

For orientation: AUC(0-t) means exposure summed from dosing to a finite time, without extrapolation to infinity. For orientation: clearance means the volume of plasma or blood freed of the substance per unit of time. Usually half-life stands for the time needed for the level to fall by half in the phase considered. A low value points to rapid decline. As a reminder, the Cmax is the highest concentration seen after dosing. By Tmax is commonly meant the time from dosing to the highest level. A word on the bioavailability: it is dose-corrected exposure relative to a reference, in per cent.
